Assay [1] relates to HLA-B7+ LCL1 cell line. The experiment in a line: IFN-γ release by TCRF5.4-transduced PBMC to peptide-pulsed LCL1. The format is cell-based, human. The note with it: peptide-pulsed LCL1, E/T 1:1, ELISA, triplicates (n = 2). The protocol:
(§1) An E/T ratio of 1:1 was used. IFN-γ secretion of the supernatants after co-cultivation was measured by IFN-γ ELISA. […] (B) Beta-2-microglobulin (B2M)-ELISA of UV-mediated peptide exchanged HLA-B7 monomers. V50 values of a Boltzmann fitting for each MPO-peptide was determined by the optical density of B2M after degraded amounts of MPO-peptides were used for HLA-stabilization. […] (C) Pooled results of (B) for MPO5 (n = 4), MPO2 (n = 4), and MPO2+L1 (n = 3). Significance is calculated by Mann-Whitney Test: *p = 0.0286. TEXT PRINTED IN THE PICTURE: (B) MPO5: V50 = -5,204 | (B) MPO2: V50 = -4,610 | (B) MPO2+L1: V50 = -4,143
Background: ELISA stands for enzyme-linked immunosorbent assay.

Assay [2] relates to HLA-B7 monomers. The experiment in a line: UV-mediated peptide exchange, B2M ELISA. In kind it is binding, human. The conditions noted are these: for Stability after UV-peptide exchange, V50: Pooled values of at least three independent experiments, 0–200 μM peptide, UV 366 nm, B2M ELISA, Boltzmann fit; for HLA-stabilization potential: UV-peptide exchange, titrated peptide. The protocol: Biotinylated HLA-B7 monomers loaded with the UV-cleavable epitope AARG(J)TLAM were created as previously described ([33]). Peptide-HLA stability was measured using the protocol on the basis of Rodenko et al. ([34]). In brief, HLA-B7 monomers loaded with the UV-sensitive peptide were exposed to UV light (366 nm) in the presence of graded amounts (0–200 μM) of MPO peptides. Afterward 1:10 dilutions of the UV-exchanged monomers were adhered via streptavidin to the bottom of a 96-well plate (F96 maxisorp nunc-immune plate, Thermo scientific) and a beta-2-microglobulin ELISA was performed. The OD measurements were performed on a Tecan Sunrise multi-well-reader using Magellan software (version 7.2).
as §1
To verify the stability results of all three MPO-peptides experimentally, we performed HLA-B7 UV-peptide exchange assays with titrated amounts of peptide added to a constant concentration of HLA-B7 monomers bound to a UV-sensitive peptide. […] Thus, our results oppose the results of the NetMHC stability prediction. As a second experiment, we performed thermal shift assays for the MPO peptides to characterize their potential to prevent denaturation of the HLA-complex with ascending temperature (Supplementary Figure 3A; Table 1).

For assay [3], the system named is HLA-B7 monomers. The experiment in a line: Thermal shift assay (DSF) of p-MHC complexes. The note with it: for Thermal stability V50: 2 µM monomer, 150 mM NaCl, 10 mM HEPES pH 7.4, 3 mM EDTA, SYPRO orange, 21°C to 95°C, mean of quadruplicates (n=2); for thermal V50: Boltzmann fitting, rounded. The format is binding, human. The protocol: (§2) (A) Thermal shift assay of MPO-peptides in comparison to pp65 and MPO2+L1. Boltzmann fitting was used to determine V50 values (half-maximal denaturation) for each p-MHC complex after gradual heating from 21°C to 95°C. The mean of quadruplicates is shown (n=2). (B) Measurement of kinetic stability of indicated p-MHC complexes in comparison to pp65 and MPO2+L1 at constant temperature of 37°C. For the determination of half-maximal decay of p-MHC complexes, the slowest constant rates were used after fitting the fluorescence values with an exponential two-phase decay equation. The mean of quadruplicates is shown (n=2). (A,B) The fluorescence was measured by monitoring the intensity of SYPRO orange protein dye binding to hydrophobic core regions of unfolded p-MHC-complexes. (C) Occurrence of the MPO2 and MPO5 peptides on the surface of indicated AML cell lines with endogenous HLA-B7 expression using the heavy labelled Leu7 counterpart for detection. Logarithmic intensities of MPO peptide surface presentation for MPO peptides are shown in duplicates. MPO5 peptides are depicted in blue, MPO2 peptides are depicted in green (n=2).
(§3) For differential scanning fluorimetry (DSF), i.e. thermal shift assay and kinetic stability measurement, MPO2-, MPO2+L1-, MPO5- or pp65(417-426) peptide exchanged HLA-B7 monomers were used in a concentration of 2µM and analyzed on a StepOnePlus RT-PCR instrument (Applied Biosystems, Foster City, CA, USA), respectively. Samples were measured in a final volume of 20µl in MicroAmp^R Fast Optical 96-well reaction plates (Applied Biosystems) containing 150mM NaCl, 10mM HEPES (pH 7.4), 3mM EDTA and 10x SYPRO orange (Thermo Fisher Scientific) as described previously (Hellman et al., 2016). Analysis was done following the recommendations described elsewhere (Niesen et al., 2007) using the Microsoft Excel-based tool “DSF Analysis v3.0.2” available under the following link (ftp://ftp.sgc.ox.ac.uk/pub/biophysics). For accurate ﬁtting and calculation of V50-values, the Boltzmann equation was performed using GraphPad Prism (version 7.04, San Diego, USA). The kinetic stability was analyzed at constant 37°C and fluorescence was measured every 5 minutes. The fluorescent data were fit to a two-phase decay function and slowest rates for half-lives were calculated using GraphPad Prism (version 7.04, San Diego, USA).

Assay [4] relates to HLA-B7 monomers. The experiment in a line: Kinetic stability of p-MHC complexes at 37°C (DSF). The format is binding, human. The conditions noted are these: DSF at constant 37°C; for Half-life 37°C: pH 7.4, SYPRO orange, two-phase decay, slowest rate, mean of quadruplicates (n=2). Here is the method: as §2, §3
Assay [5] has as its system HL60, ML2, NB4 and SiG-M5 AML cell lines. The experiment in a line: Cytokine secretion by TCR-transduced CD8+ T cells to AML cell lines. The format is cell-based, human. The note with it: AML cell lines pulsed with MPO2 or MPO5.
Protocol: The cytotoxic reactivity of T cells was tested by flow cytometry making use of changes in signal of the HLA-B7eGFP-transgenic target cells during co-cultivation for different time periods and effector to target ratios. For relative quantification of cytotoxicity, AccuCheck counting beads were used according to the manufacturer's protocol (Thermo Fisher Scientific) and the results were normalized to either non-TCR-transduced T cells or irrelevant T-cell clones. The supernatants of the co-cultivation were used to measure IFN-γ by ELISA (BD) or GM-CSF, IFN-γ, and lL-2 multiplexed by flow cytometry (Miltenyi Biotec) according to the manufacturer's instructions. […] If not stated otherwise, the effector to target ratio was set to 1:1 for the co-incubation assays using 20,000 cells in each fraction.
Half-maximal IFN-γ release was calculated using logarithmic dose-response fitting algorithm with variable slope (EC50) of GraphPad Prism. Mean ± SD of triplicates of one representative experiment are shown (n = 6). […] 10.000 effector cells were used in a ratio of 1:1. Standard deviations of the mean of triplicates are shown (n = 4). (Gi−iv) Cytokine secretion (GM-CSF, IFN-γ, and IL-2) measured by flow cytometry based multiplex analysis in response to selected AML cell lines is shown in triplicates either unpulsed or additionally pulsed with MPO2 or MPO5.
In assay [6] the test system is AML cell lines. The experiment in a line: Targeted MS of surface-presented peptides. On the set-up: species or system human. The conditions noted are these: targeted MS with heavy labelled peptides; MPO2 compared to MPO5 (n=2). Here is the method: as §2, with “MPO5 peptides are depicted in blue, MPO2 peptides are depicted in green (n=2).” left out
The MPO2 and MPO5 ligands were identified using an immunopeptidomic approach as previously described (Klar et al., 2014). For the targeted identification and relative quantification of both peptides, HLA-I peptides were purified from 5x10^8 cells of each cell line as previously described (Bassani-Sternberg et al., 2016). […]

Four sequences from article PMC6611213, “Key Features Relevant to Select Antigens and TCR From the MHC-Mismatched Repertoire to Treat Cancer” (Frontiers in Immunology, 2019) can be followed below.

Regarding LTPAQLNVL [MPO2+L1], in assay [1], the “IFN-γ secretion by TCRF5.4-transduced T cells” value is on record as “detected IFN-γ secretion”. Besides, in assay [2], the “Stability after UV-peptide exchange, V50” value was −3.728 log10 M and the “HLA-stabilization potential” value was “lowest potential for HLA-stabilization”. Moreover, in assay [3], the “Thermal stability V50” value amounted to 44.0 °C and the “thermal V50” value came to 44 °C. Further, the “Half-life 37°C” value in assay [4] worked out at 2.9 h.
Regarding NPRWDGERL [MPO5], in assay [2], the “Stability after UV-peptide exchange, V50” value was −5.535 log10 M and the “HLA-stabilization potential” value is “almost one log increased potential to rescue the HLA-B7 molecule”. Moreover, in assay [5], the “effect of additional peptide pulsing on cytokine secretion” value was “did not have a major impact on cytokine secretion”. In assay [3], the “Thermal stability V50” value stood at 46.4 °C and the “thermal V50” value was determined as 46 °C. Besides, in assay [4], the “Half-life (decay of HLA-complexes) 37°C” value is 4.1 h and the “Half-life 37°C” value was determined as 4.1 h.
For the sequence TPAQLNVL [MPO2], in assay [6], the “surface presentation on AML cell lines” value is recorded as “markedly lower presented on the surface of all AML cells lines compared to MPO5”. In assay [2], the “Stability after UV-peptide exchange, V50” value is recorded as −4.671 log10 M. Also, the “effect of additional peptide pulsing on cytokine secretion” value in assay [5] was “these differences could be compensated by additional MPO2 peptide pulsing”. For the same sequence, in assay [3], the “Thermal stability V50” value is 46.3 °C and the “thermal V50” value stood at 46 °C. In addition, in assay [4], the “Half-life (decay of HLA-complexes) 37°C” value was 3.5 h and the “Half-life 37°C” value came to 3.5 h.
For “TPRVTGGGAM [pp65, pp65(417-426) control peptide […], reference compound]”, in assay [3], the “Thermal stability V50” value was found to be 50.0 °C and the “thermal V50” value amounted to 50 °C. The “Half-life 37°C” value in assay [4] was 5.6 h.
